Molecular target: T1, mutant CFTR (Homo sapiens, UniProt P13569, DEL508-508)
T1 construct: expressed in transfected cells
Experiment: Fluorescence (HS-YFP) assay for CFTR activity, corrector assay
Assay type: cell-based
Settings: CFBE41o- and FRT cells with stable expression of mutant CFTR, 24 h compound treatment
How it was run: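 Corrector activity: 24 h compound treatment of HS-YFP/mutant-CFTR CFBE41o- or FRT cells, followed by 30 min forskolin 20 μM + genistein 50 μM at 37° C. Iodide influx (100 mM final) was tracked as fluorescence quenching, with dF/dt extrapolated by exponential fitting; EC50 values derived.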

T1 sequence (P13569 with tags, fused parts or gaps DEL508-508): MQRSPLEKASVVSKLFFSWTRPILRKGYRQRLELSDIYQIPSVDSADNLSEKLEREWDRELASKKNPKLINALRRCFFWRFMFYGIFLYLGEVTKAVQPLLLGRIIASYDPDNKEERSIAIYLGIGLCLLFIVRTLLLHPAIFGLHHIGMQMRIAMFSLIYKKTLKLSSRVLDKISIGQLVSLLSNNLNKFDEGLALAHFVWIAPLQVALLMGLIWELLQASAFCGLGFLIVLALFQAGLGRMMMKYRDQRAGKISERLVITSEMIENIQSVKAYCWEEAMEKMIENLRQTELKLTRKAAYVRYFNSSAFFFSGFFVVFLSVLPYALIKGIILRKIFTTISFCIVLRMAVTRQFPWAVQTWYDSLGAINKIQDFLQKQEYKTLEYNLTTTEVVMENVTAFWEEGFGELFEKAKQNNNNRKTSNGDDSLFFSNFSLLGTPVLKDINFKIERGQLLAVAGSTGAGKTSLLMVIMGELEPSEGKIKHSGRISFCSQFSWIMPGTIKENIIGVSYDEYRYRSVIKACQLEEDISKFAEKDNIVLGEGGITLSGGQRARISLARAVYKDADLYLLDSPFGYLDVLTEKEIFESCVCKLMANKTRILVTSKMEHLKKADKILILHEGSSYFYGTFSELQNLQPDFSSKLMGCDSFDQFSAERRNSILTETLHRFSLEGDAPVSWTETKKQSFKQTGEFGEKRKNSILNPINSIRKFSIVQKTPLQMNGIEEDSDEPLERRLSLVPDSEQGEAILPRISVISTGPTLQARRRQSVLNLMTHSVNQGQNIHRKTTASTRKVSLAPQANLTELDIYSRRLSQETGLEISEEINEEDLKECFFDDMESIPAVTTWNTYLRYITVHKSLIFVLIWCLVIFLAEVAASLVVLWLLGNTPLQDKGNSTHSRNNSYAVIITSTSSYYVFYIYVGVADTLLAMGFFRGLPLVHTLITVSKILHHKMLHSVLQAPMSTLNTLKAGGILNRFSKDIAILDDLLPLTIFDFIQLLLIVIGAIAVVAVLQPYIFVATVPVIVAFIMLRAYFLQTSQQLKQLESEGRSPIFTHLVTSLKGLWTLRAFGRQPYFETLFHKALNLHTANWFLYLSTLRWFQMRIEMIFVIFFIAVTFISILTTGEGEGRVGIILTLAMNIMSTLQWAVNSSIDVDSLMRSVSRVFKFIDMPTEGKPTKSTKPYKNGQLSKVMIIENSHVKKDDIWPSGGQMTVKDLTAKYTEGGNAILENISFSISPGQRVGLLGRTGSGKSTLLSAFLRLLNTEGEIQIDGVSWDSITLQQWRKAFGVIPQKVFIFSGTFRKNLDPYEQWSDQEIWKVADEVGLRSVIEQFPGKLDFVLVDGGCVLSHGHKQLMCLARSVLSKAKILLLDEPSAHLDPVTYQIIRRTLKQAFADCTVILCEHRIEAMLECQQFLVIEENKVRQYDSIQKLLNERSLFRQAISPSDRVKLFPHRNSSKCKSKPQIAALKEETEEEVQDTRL

| Structure (SMILES) | EC50 [nM] |
| --- | --- |
| CN(C(=O)c1cccc(-n2nc(C(F)(F)F)cc2-c2cccnc2)c1)c1ccc2c(c1)OCO2 [compound 193, N-(1,3-Benzodioxol-5-yl)-N-methyl-3-[5-(3-pyridyl)-3-(trifluoromethyl)pyrazol-1-yl]benzamide] | < 1000 |
| Cc1nc2ccc(N(C)C(=O)c3cccc(-n4nc(C(F)(F)F)cc4OCc4ccc(C(=O)O)cc4)c3)cc2o1 [compound 195, 4-[[2-[3-[Methyl-(2-methyl-1,3-benzoxazol-6-yl)carbamoyl]phenyl]-5-(trifluoromethyl)pyrazol-3-yl]oxymethyl]benzoic acid] | < 1000 |
| Cc1nc2ccc(N(C)C(=O)c3cccc(-n4nc(C(F)(F)F)c(Cl)c4OCc4ccc(C(=O)O)cc4)c3)cc2o1 [compound 198, 4-[[4-Chloro-2-[3-[methyl-(2-methyl-1,3-benzoxazol-6-yl)carbamoyl]phenyl]-5-(trifluoromethyl)pyrazol-3-yl]oxymethyl]benzoic acid] | < 1000 |
| Cc1c(Cl)c(C(F)(F)F)nn1-c1cccc(C(=O)Nc2ccc3c(c2C(=O)O)OCO3)c1 [compound 205, 5-[[3-[4-chloro-5-methyl-3-(trifluoromethyl)pyrazol-1-yl]benzoyl]amino]-1,3-benzodioxole-4-carboxylic acid] | > 2000 |
| Cc1c(Cl)c(C(F)(F)F)nn1-c1cccc(C(=O)Nc2ccc3c(c2CO)OCO3)c1 [compound 206, 3-[4-chloro-5-methyl-3-(trifluoromethyl)pyrazol-1-yl]-N-[4-(hydroxymethyl)-1,3-benzodioxol-5-yl]benzamide] | > 2000 |
| Cc1c(Cl)c(C(F)(F)F)nn1-c1cccc(C(=O)N(C)c2ccc3c(c2C=O)OCO3)c1 [compound 207, 3-[4-chloro-5-methyl-3-(trifluoromethyl)pyrazol-1-yl]-N-(4-formyl-1,3-benzodioxol-5-yl)-N-methyl-benzamide] | > 2000 |
| CN(C(=O)c1cccc(-n2nc(C(F)(F)F)c(C#N)c2Oc2ccc(C(=O)O)cc2)c1)c1ccc2c(c1)OCO2 [compound 210, 4-[2-[3-[1,3-Benzodioxol-5-yl(methyl)carbamoyl]phenyl]-4-cyano-5-(trifluoromethyl)pyrazol-3-yl]oxybenzoic acid] | > 2000 |
| CN(C(=O)c1cccc(-n2nc(C(F)(F)F)c(C#N)c2COc2ccc(C(=O)O)cc2)c1)c1ccc2c(c1)OC(F)(F)O2 [compound 224, 4-[[4-Cyano-2-[3-[(2,2-difluoro-1,3-benzodioxol-5-yl)-methyl-carbamoyl]phenyl]-5-(trifluoromethyl)pyrazol-3-yl]methoxy]benzoic acid] | < 1000 |
| CN(C(=O)c1cccc(-n2nc(C(F)(F)F)c(Cl)c2COc2cnc(C(=O)O)cn2)c1)c1ccc2c(c1)OC(F)(F)O2 [compound 226, 5-[[4-Chloro-2-[3-[(2,2-difluoro-1,3-benzodioxol-5-yl)-methyl-carbamoyl]phenyl]-5-(trifluoromethyl)pyrazol-3-yl]methoxy]pyrazine-2-carboxylic acid] | < 1000 |
| CN(C(=O)c1cccc(-n2nc(C(F)(F)F)c(Cl)c2CO[C@H]2CC[C@H](C(=O)O)CC2)c1)c1ccc2c(c1)OC(F)(F)O2 [compound 228, Trans-4-[[4-chloro-2-[3-[(2,2-difluoro-1,3-benzodioxol-5-yl)-methyl-carbamoyl]phenyl]-5-(trifluoromethyl)pyrazol-3-yl]methoxy]cyclohexanecarboxylic acid] | < 1000 |
| Cc1nc2ccc(N(C)C(=O)c3cccc(-n4nc(C(F)(F)F)c(Cl)c4COc4ccc(C(=O)O)cc4)c3)cc2o1 [compound 233, 4-[[4-Chloro-2-[3-[methyl-(2-methyl-1,3-benzoxazol-6-yl)carbamoyl]phenyl]-5-(trifluoromethyl)pyrazol-3-yl]methoxy]benzoic acid] | < 1000 |
| Cc1nc2ccc(N(C)C(=O)c3cccc(-n4nc(C(F)(F)F)c(Cl)c4COc4ccc(C(=O)O)cc4)c3)cn2n1 [compound 236, 4-[[4-Chloro-2-[3-[methyl-(2-methyl-[1,2,4]triazolo[1,5-a]pyridin-6-yl)carbamoyl]phenyl]-5-(trifluoromethyl)pyrazol-3-yl]methoxy]benzoic acid] | < 1000 |
| Cc1cc2ncc(N(C)C(=O)c3cccc(-n4nc(C(F)(F)F)c(Cl)c4COc4ccc(C(=O)O)cc4)c3)cn2n1 [compound 238, 4-[[4-Chloro-2-[3-[methyl-(2-methylpyrazolo[1,5-a]pyrimidin-6-yl)carbamoyl]phenyl]-5-(trifluoromethyl)pyrazol-3-yl]methoxy]benzoic acid] | 1000 to 2000 |
| Cc1cc2cc(N(C)C(=O)c3cccc(-n4nc(C(F)(F)F)c(Cl)c4COc4ccc(C(=O)O)cc4)c3)ccn2n1 [compound 239, 4-[[4-Chloro-2-[3-[methyl-(2-methylpyrazolo[1,5-a]pyridin-5-yl)carbamoyl]phenyl]-5-(trifluoromethyl)pyrazol-3-yl]methoxy]benzoic acid] | < 1000 |

More lines, now with the values ahead:

| EC50 [nM] | Structure (SMILES) |
| --- | --- |
| 1000 to 2000 | CN(C(=O)c1cccc(-n2nc(-c3cccnc3)cc2C(F)(F)F)c1)c1ccc2c(c1)OCO2 [compound 194, N-(1,3-Benzodioxol-5-yl)-N-methyl-3-[3-(3-pyridyl)-5-(trifluoromethyl)pyrazol-1-yl]benzamide] |
| < 1000 | Cc1nc2cc(F)c(N(C)C(=O)c3cccc(-n4nc(C(F)(F)F)cc4OCc4ccc(C(=O)O)cc4)c3)cc2o1 [compound 196, 4-[[2-[3-[(5-Fluoro-2-methyl-1,3-benzoxazol-6-yl)-methyl-carbamoyl]phenyl]-5-(trifluoromethyl)pyrazol-3-yl]oxymethyl]benzoic acid] |
| < 1000 | CN(C(=O)c1cccc(-n2nc(C(F)(F)F)cc2OCc2ccc(C(=O)O)cc2)c1)c1ccc2c(c1)OC(F)(F)O2 [compound 197, 4-[[2-[3-[(2,2-difluoro-1,3-benzodioxol-5-yl)-methyl-carbamoyl]phenyl]-5-(trifluoromethyl)pyrazol-3-yl]oxymethyl]benzoic acid] |
| < 1000 | CN(C(=O)c1cccc(-n2nc(C(F)(F)F)c(C#N)c2Oc2ccc(C(=O)OC(C)(C)C)cc2)c1)c1ccc2c(c1)OCO2 [compound 200, Tert-butyl 4-[2-[3-[1,3-benzodioxol-5-yl (methyl)carbamoyl]phenyl]-4-cyano-5-(trifluoromethyl)pyrazol-3-yl]oxybenzoate] |
| < 1000 | CN(C(=O)c1cccc(-n2nc(C(F)(F)F)c(Cl)c2OCc2ccc(C(=O)OC(C)(C)C)cc2)c1)c1ccc2c(c1)OC(F)(F)O2 [compound 201, Tert-butyl 4-[[4-chloro-2-[3-[(2,2-difluoro-1,3-benzodioxol-5-yl)-methyl-carbamoyl]phenyl]-5-(trifluoromethyl)pyrazol-3-yl]oxymethyl]benzoate] |
| < 1000 | Cc1nc2cc(F)c(N(C)C(=O)c3cccc(-n4nc(C(F)(F)F)c(Cl)c4OCc4ccc(C(=O)OC(C)(C)C)cc4)c3)cc2o1 [compound 202, Tert-butyl 4-[[4-chloro-2-[3-[(5-fluoro-2-methyl-1,3-benzoxazol-6-yl)-methyl-carbamoyl]phenyl]-5-(trifluoromethyl)pyrazol-3-yl]oxymethyl]benzoate] |
| 1000 to 2000 | Cc1cc(C(F)(F)F)nn1-c1cccc(S(=O)(=O)N(C)c2ccc3c(c2)OCO3)c1 [compound 204, N-(1,3-Benzodioxol-5-yl)-N-methyl-3-[5-methyl-3-(trifluoromethyl)pyrazol-1-yl]benzenesulfonamide] |
| > 2000 | Cc1c(Cl)c(C(F)(F)F)nn1-c1cccc(C(=O)N(C)c2ccc3c(c2C(=O)O)OCO3)c1 [compound 208, 5-[[3-[4-chloro-5-methyl-3-(trifluoromethyl)pyrazol-1-yl]benzoyl]-methyl-amino]-1,3-benzodioxole-4-carboxylic acid] |
| > 2000 | Cc1c(Cl)c(C(F)(F)F)nn1-c1cccc(C(=O)N(C)c2ccc3c(c2CO)OCO3)c1 [compound 209, 3-[4-chloro-5-methyl-3-(trifluoromethyl)pyrazol-1-yl]-N-[4-(hydroxymethyl)-1,3-benzodioxol-5-yl]-N-methyl-benzamide] |
| < 1000 | CN(C(=O)c1cccc(-n2nc(C(F)(F)F)c(Cl)c2OCc2ccc(C(=O)O)cc2)c1)c1ccc2c(c1)OC(F)(F)O2 [compound 211, 4-[[4-Chloro-2-[3-[(2,2-difluoro-1,3-benzodioxol-5-yl)-methyl-carbamoyl]phenyl]-5-(trifluoromethyl)pyrazol-3-yl]oxymethyl]benzoic acid] |
| < 1000 | Cc1nc2cc(F)c(N(C)C(=O)c3cccc(-n4nc(C(F)(F)F)c(Cl)c4OCc4ccc(C(=O)O)cc4)c3)cc2o1 [compound 212, 4-[[4-Chloro-2-[3-[(5-fluoro-2-methyl-1,3-benzoxazol-6-yl)-methyl-carbamoyl]phenyl]-5-(trifluoromethyl)pyrazol-3-yl]oxymethyl]benzoic acid] |
| < 1000 | CN(C(=O)c1cccc(-n2nc(C(F)(F)F)cc2O[C@H]2CC[C@@H](C(=O)O)CC2)c1)c1ccc2c(c1)OCO2 [compound 216, Cis-4-[2-[3-[1,3-benzodioxol-5-yl(methyl)carbamoyl]phenyl]-5-(trifluoromethyl)pyrazol-3-yl]oxycyclohexane carboxylic acid] |
| < 1000 | CN(C(=O)c1cccc(-n2nc(C(F)(F)F)c(Cl)c2CO)c1)c1ccc2c(c1)OC(F)(F)O2 [compound 217, 3-[4-Chloro-5-(hydroxymethyl)-3-(trifluoromethyl)pyrazol-1-yl]-N-(2,2-difluoro-1,3-benzodioxol-5-yl)-N-methyl-benzamide] |
| < 1000 | CN(C(=O)c1cccc(-n2nc(C(F)(F)F)cc2COc2ccc(C(=O)O)cc2)c1)c1ccc2c(c1)OC(F)(F)O2 [compound 218, 4-[[2-[3-[(2,2-difluoro-1,3-benzodioxol-5-yl)-methyl-carbamoyl]phenyl]-5-(trifluoromethyl)pyrazol-3-yl]methoxy]benzoic acid] |
| < 1000 | Cc1nc2cc(F)c(N(C)C(=O)c3cccc(-n4nc(C(F)(F)F)c(Cl)c4COc4ccc(C(=O)O)cc4)c3)cc2o1 [compound 234, 4-[[4-Chloro-2-[3-[(5-fluoro-2-methyl-1,3-benzoxazol-6-yl)-methyl-carbamoyl]phenyl]-5-(trifluoromethyl)pyrazol-3-yl]methoxy]benzoic acid] |

— US12492193B2, “Pyrazole derivatives for the treatment of cystic fibrosis” (Fondazione Istituto Italiano Di Tecnologia, priority 2017, dated 2025)
